Tests used:
[1] = system: KYSE2; assay: Proliferation of human esophagus cancer cells; assay type: cell-based
From the text: (§1) Compounds BYL719 (shown below), CYH33 (compound I-33) and I-27 were selected to test their activity on the proliferation of 11 species of human esophagus cancer cells.
(§2) The results reported in FIG. 3 were the average GI50 value and SD value of three experiments. The results were arranged according to the GI50 value of CYH33.

[2] = system: KYSE140; assay: Proliferation of human esophagus cancer cells; assay type: cell-based
From the text: as §1, §2

[3] = system: KYSE410; assay: Proliferation of human esophagus cancer cells; assay type: cell-based
From the text: as §1, §2

[4] = system: KYSE70; assay: Proliferation of human esophagus cancer cells; assay type: cell-based
From the text: as §1, §2

[5] = system: KYSE450; assay: Proliferation of human esophagus cancer cells; assay type: cell-based
From the text: as §1, §2

[6] = system: KYSE30; assay: Proliferation of human esophagus cancer cells; assay type: cell-based
From the text: as §1, §2

[7] = system: COLO680N; assay: Proliferation of human esophagus cancer cells; assay type: cell-based; conditions: COLO-680N
From the text: as §1, §2

[8] = system: KYSE180; assay: Proliferation of human esophagus cancer cells; assay type: cell-based
From the text: as §1, §2

[9] = system: KYSE510; assay: Proliferation of human esophagus cancer cells; assay type: cell-based
From the text: as §1, §2

[10] = system: KYSE150; assay: Proliferation of human esophagus cancer cells; assay type: cell-based
From the text: as §1, §2

[11] = system: Detroit 562; assay: Proliferation of human esophagus cancer cells; assay type: cell-based
From the text: as §1, §2

[12] = system: human esophagus cancer KYSE 410 xenograft; assay: Growth of KYSE 410 xenograft subcutaneously transplanted in nude mouse; assay type: in vivo; conditions: for Relative tumor proliferation rate T/C: 50 mg/kg p.o. once every day
Method: Well-developed tumors in nude mice were cut into 1.5 mm3 fragments and transplanted s.c. into the right flank of nude mice under sterile conditions. The diameters of subcutaneously transplanted tumours in nude mice were measured with a vernier calipe. When the tumour reached a volume 170 mm3, the mice were randomly assigned into two treatment groups: CYH33 50 mg/kg group or BYL-719 50 mg/kg group. Control groups were given the same amount of normal saline, and treatment groups received tested compounds (p.o). Compounds were administered orally once every day for 3 weeks. Evaluation index of antitumor activity was relative tumor proliferation rate T/C (%), the calculation formula of which was as follows: T/C (%)=(TRTV/CRTV)×100%, TRTV:RTV of treatment group; CRTV:RTV of negative control group.

[13] = target: PI3Kα (Homo sapiens (Human), UniProt P42336); assay: Inhibition on PI3K kinase activity (Kinase-Glo Plus luminescent assay); assay type: biochemical; conditions: 2 μM ATP, 1 hour at room temperature
Sequence of PI3Kα (P42336 whole entry): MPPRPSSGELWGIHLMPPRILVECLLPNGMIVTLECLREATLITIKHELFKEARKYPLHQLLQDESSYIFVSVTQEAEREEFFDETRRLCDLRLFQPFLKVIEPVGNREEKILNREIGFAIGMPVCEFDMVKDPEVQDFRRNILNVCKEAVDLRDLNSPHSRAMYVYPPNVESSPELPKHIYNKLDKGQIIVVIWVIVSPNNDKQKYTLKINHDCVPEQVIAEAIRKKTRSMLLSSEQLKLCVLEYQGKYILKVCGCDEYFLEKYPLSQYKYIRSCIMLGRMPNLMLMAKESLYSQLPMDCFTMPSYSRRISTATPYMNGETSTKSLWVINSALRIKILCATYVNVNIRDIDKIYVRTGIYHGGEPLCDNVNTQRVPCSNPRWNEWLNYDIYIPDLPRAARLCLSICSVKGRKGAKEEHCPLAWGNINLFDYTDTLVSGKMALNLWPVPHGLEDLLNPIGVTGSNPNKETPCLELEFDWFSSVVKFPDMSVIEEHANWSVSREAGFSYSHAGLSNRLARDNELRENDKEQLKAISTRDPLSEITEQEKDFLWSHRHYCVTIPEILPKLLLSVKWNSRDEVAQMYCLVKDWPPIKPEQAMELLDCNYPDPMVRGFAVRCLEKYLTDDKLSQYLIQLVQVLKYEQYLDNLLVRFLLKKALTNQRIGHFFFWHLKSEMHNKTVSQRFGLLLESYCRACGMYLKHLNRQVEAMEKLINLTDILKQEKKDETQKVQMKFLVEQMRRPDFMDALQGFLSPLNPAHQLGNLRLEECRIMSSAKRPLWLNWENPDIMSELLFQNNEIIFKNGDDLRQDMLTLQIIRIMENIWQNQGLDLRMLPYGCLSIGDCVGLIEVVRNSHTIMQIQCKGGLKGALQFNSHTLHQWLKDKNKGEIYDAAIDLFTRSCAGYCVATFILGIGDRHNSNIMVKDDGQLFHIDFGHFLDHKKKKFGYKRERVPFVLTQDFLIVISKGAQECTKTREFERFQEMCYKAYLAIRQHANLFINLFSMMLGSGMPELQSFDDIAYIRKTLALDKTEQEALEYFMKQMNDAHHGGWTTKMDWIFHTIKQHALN
Sequence of PI3Kα (P27986 whole entry partner): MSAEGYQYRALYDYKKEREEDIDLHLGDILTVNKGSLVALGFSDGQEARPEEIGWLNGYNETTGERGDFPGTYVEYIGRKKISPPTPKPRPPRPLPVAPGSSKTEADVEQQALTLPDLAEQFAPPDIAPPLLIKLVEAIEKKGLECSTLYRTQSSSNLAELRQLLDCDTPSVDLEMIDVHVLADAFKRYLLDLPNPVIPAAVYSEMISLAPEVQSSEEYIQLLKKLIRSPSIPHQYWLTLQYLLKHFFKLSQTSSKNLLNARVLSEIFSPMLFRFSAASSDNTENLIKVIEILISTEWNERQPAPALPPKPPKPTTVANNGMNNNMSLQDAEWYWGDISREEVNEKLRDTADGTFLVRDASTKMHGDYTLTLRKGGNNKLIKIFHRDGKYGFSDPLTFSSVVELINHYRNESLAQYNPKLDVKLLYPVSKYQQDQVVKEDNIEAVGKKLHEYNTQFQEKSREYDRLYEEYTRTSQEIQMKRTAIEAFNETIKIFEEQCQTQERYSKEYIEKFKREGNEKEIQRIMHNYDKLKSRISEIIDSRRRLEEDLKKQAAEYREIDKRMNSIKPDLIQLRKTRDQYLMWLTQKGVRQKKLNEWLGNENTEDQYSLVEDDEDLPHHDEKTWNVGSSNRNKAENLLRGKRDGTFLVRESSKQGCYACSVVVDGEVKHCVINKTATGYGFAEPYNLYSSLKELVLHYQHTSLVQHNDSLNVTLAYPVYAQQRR
Method: The activity of purified kinase was detected with Kinase-Glo® Plus kinase luminescent assay by measuring the amount of the remaining […] in the solution after the kinase reaction was completed. […] After reaction was performed for 1 hour at room temperature, 10 μL of Kinase Glo-Plus mixture was added and incubated for 1 hour to quench the reaction.

[14] = system: human rhabdomyosarcoma Rh30 cells; assay: Proliferation of Rh30 cells (sulforhodamine B); assay type: cell-based; conditions: for IC50: Homo sapiens, Rh30, 72 h, read-out: IC50 against proliferation of Rh30 cells
Method: Rh30 cells were seeded in a 96-well plate at 3000 cells/well. After the cells adhered, tested compounds at concentration of 10, 3, 1, 0.3, or 0.1 μM were added, and incubated for 72 h. The culture media were discarded and cells were fixed with trichloroacetic acid. After washed with distilled water for five times and dried, sulfonylrhodamine B was added. After washed with 1% glacial acetic acid for five times and dried, trihydroxymethylaminomethane buffer was added. OD value was measured by using a microplate reader at a wavelength of 560 nm.

[15] = KYSE2, mean of three experiments
[16] = KYSE-140, KYSE140, 1st experiment
[17] = KYSE-140, KYSE140, 2nd experiment
[18] = KYSE-140, KYSE140, 3rd experiment
[19] = KYSE-140, KYSE140, mean of three experiments
[20] = KYSE-410, KYSE410, 1st experiment
[21] = KYSE-410, KYSE410, 2nd experiment
[22] = KYSE-410, KYSE410, 3rd experiment
[23] = KYSE-410, KYSE410, mean of three experiments
[24] = KYSE-70, KYSE70, 1st experiment
[25] = KYSE-70, KYSE70, 2nd experiment
[26] = KYSE-70, KYSE70, 3rd experiment
[27] = KYSE-70, KYSE70, mean of three experiments
[28] = KYSE-450, KYSE450, 1st experiment
[29] = KYSE-450, KYSE450, 2nd experiment
[30] = KYSE-450, KYSE450, 3rd experiment
[31] = KYSE-450, KYSE450, mean of three experiments
[32] = KYSE-30, KYSE30, 1st experiment
[33] = KYSE-30, KYSE30, 2nd experiment
[34] = KYSE-30, KYSE30, 3rd experiment
[35] = KYSE-30, KYSE30, mean of three experiments
[36] = KYSE-180, KYSE180, 1st experiment
[37] = KYSE-180, KYSE180, 2nd experiment
[38] = KYSE-180, KYSE180, 3rd experiment
[39] = KYSE-180, KYSE180, mean of three experiments
[40] = KYSE-510, KYSE510, 1st experiment
[41] = KYSE-510, KYSE510, 2nd experiment
[42] = KYSE-510, KYSE510, 3rd experiment
[43] = KYSE-510, KYSE510, mean of three experiments
[44] = KYSE-150, KYSE150, 1st experiment
[45] = KYSE-150, KYSE150, 2nd experiment
[46] = KYSE-150, KYSE150, 3rd experiment
[47] = KYSE-150, KYSE150, mean of three experiments
[48] = Detroit 562, Detroit 562, 1st experiment
[49] = Detroit 562, Detroit 562, 2nd experiment
[50] = Detroit 562, Detroit 562, 3rd experiment
[51] = Detroit 562, Detroit 562, mean of three experiments

Cc1nc(NC(=O)N2CCC[C@H]2C(N)=O)sc1-c1ccnc(C(C)(C)C(F)(F)F)c1 [BYL719, reference compound]
GI50 ([1]; KYSE2, 1st experiment): 1440 nM
GI50 ([1]; KYSE2, 2nd experiment): 911 nM
GI50 ([1]; KYSE2, 3rd experiment): 1870 nM
GI50 [1, 15]: 1410 nM
GI50 [2, 16]: 2450 nM
GI50 [2, 17]: 3610 nM
GI50 [2, 18]: 2740 nM
GI50 [2, 19]: 2930 nM
GI50 [3, 20]: 1890 nM
GI50 [3, 21]: 816 nM
GI50 [3, 22]: 874 nM
GI50 [3, 23]: 1190 nM
GI50 [4, 24]: 452 nM
GI50 [4, 25]: 450 nM
GI50 [4, 26]: 478 nM
GI50 [4, 27]: 460 nM
GI50 [5, 28]: 8590 nM
GI50 [5, 29]: 10000 nM
GI50 [5, 30]: 8800 nM
GI50 [5, 31]: 9130 nM
GI50 [6, 32]: 10000 nM
GI50 [6, 33]: 6830 nM
GI50 [6, 34]: 10000 nM
GI50 [6, 35]: 8940 nM
GI50 ([7]; 1st experiment): 6120 nM
GI50 ([7]; 2nd experiment): 6050 nM
GI50 ([7]; 3rd experiment): 6100 nM
GI50 ([7]; mean of three experiments): 6090 nM
GI50 [8, 36]: 354 nM
GI50 [8, 37]: 740 nM
GI50 [8, 38]: 553 nM
GI50 [8, 39]: 549 nM
GI50 [9, 40]: 1530 nM
GI50 [9, 41]: 835 nM
GI50 [9, 42]: 1030 nM
GI50 [9, 43]: 1130 nM
GI50 [10, 44]: 1640 nM
GI50 [10, 45]: 2110 nM
GI50 [10, 46]: 1670 nM
GI50 [10, 47]: 1810 nM
GI50 [11, 48]: 1970 nM
GI50 [11, 49]: 2300 nM
GI50 [11, 50]: 2380 nM
GI50 [11, 51]: 2220 nM
growth of KYSE 410 xenograft (in words) ([12]; 50 mg/kg p.o. every day for 3 weeks): significantly slowed down
Relative tumor proliferation rate T/C ([12]; d0): 100.00%
Relative tumor proliferation rate T/C ([12]; d3): 56.95%
Relative tumor proliferation rate T/C ([12]; d7): 31.23%
Relative tumor proliferation rate T/C ([12]; d10): 24.77%
Relative tumor proliferation rate T/C ([12]; d14): 22.12%
Relative tumor proliferation rate T/C ([12]; d17): 19.32%
Relative tumor proliferation rate T/C ([12]; d21): 15.37%

CN1CCN(C(=O)c2ccc(NC(=O)Nc3ccc(-c4nc(N5CCOCC5)c5cc(CN6CCN(S(C)(=O)=O)CC6)cn5n4)cc3)cc2)CC1 [Compound I-22, 1-(4-(4-methylpiperazine-carbonyl)phenyl)-3-(4-(6-((4-(methylsulfonyl)piperazin-1-yl)methy 1)-4-morpholinopyrrolo[2,1-f][1,2,4]triazin-2-yl)phenyl)urea]
IC50 [13]: 9.59 nM
IC50 [14]: 540 nM

CS(=O)(=O)N1CCN(Cc2cc3c(N4CCOCC4)nc(-c4cnc(N)cc4C(F)(F)F)nn3c2)CC1 [Compound I-27, 5-(6-((4-(methylsulfonyl)piperazin-1-yl)methyl)-4-morpholinopyrrolo [2,1-f][1,2,4]triazin-2-yl)-4-(trifluoromethyl)pyridin-2-amine]
IC50 [13]: 8.37 nM
IC50 [14]: 730 nM
GI50 ([1]; KYSE2, 1st experiment): 255 nM
GI50 ([1]; KYSE2, 2nd experiment): 165 nM
GI50 ([1]; KYSE2, 3rd experiment): 310 nM
GI50 [1, 15]: 243 nM
GI50 [2, 16]: 898 nM
GI50 [2, 17]: 638 nM
GI50 [2, 18]: 792 nM
GI50 [2, 19]: 776 nM
GI50 [3, 20]: 468 nM
GI50 [3, 21]: 959 nM
GI50 [3, 22]: 229 nM
GI50 [3, 23]: 552 nM
GI50 [4, 24]: 109 nM
GI50 [4, 25]: 59 nM
GI50 [4, 26]: 112 nM
GI50 [4, 27]: 93 nM
GI50 [5, 28]: 1230 nM
GI50 [5, 29]: 1000 nM
GI50 [5, 30]: 932 nM
GI50 [5, 31]: 1050 nM
GI50 [6, 32]: 2350 nM
GI50 [6, 33]: 1100 nM
GI50 [6, 34]: 1070 nM
GI50 [6, 35]: 1510 nM
GI50 ([7]; 1st experiment): 959 nM
GI50 ([7]; 2nd experiment): 915 nM
GI50 ([7]; 3rd experiment): 917 nM
GI50 ([7]; mean of three experiments): 930 nM
GI50 [8, 36]: 100 nM
GI50 [8, 37]: 169 nM
GI50 [8, 38]: 77 nM
GI50 [8, 39]: 115 nM
GI50 [9, 40]: 247 nM
GI50 [9, 41]: 390 nM
GI50 [9, 42]: 204 nM
GI50 [9, 43]: 280 nM
GI50 [10, 44]: 202 nM
GI50 [10, 45]: 276 nM
GI50 [10, 46]: 150 nM
GI50 [10, 47]: 209 nM
GI50 [11, 48]: 580 nM
GI50 [11, 49]: 527 nM
GI50 [11, 50]: 607 nM
GI50 [11, 51]: 571 nM

CS(=O)(=O)N1CCN(Cc2cc3c(N4CCOCC4)nc(-c4cnc(NC(=O)Nc5ccc(F)cc5)cc4C(F)(F)F)nn3c2)CC1 [Compound I-28, 1-(4-fluorophenyl)-3-(5-(6-((4-(methylsulfonyl)piperazin-1-yl)methyl)-4-morpholinopyrrolo[2,1-f][1,2,4]triazin-2-yl)-4-(trifluoromethyl)pyridin-2-yl)urea]
IC50 [13]: 9.3 nM
inhibitory activity on Rh30 cell proliferation (in words) ([14]; 72 h): tens of nanomolar
IC50 [14]: 74 nM

CCOC(=O)Nc1cc(C(F)(F)F)c(-c2nc(N3CCOCC3)c3cc(CN4CCN(S(C)(=O)=O)CC4)cn3n2)cn1 [Compound I-32, Ethyl (5-(6-((4-(methylsulfonyl)piperazin-1-yl)methyl)-4-morpholinopyrrolo[2,1-f-][1,2,4]triazin-2-yl)-4-(trifluoromethyl)pyridin-2-yl)carbamate]
IC50 [13]: 7.15 nM

COC(=O)Nc1cc(C(F)(F)F)c(-c2nc(N3CCOC[C@@H]3C)c3cc(CN4CCN(S(C)(=O)=O)CC4)cn3n2)cn1 [Compound I-35, (S)-methyl (5-(4-(3-methylmorpholino)-6-((4-(methylsulfonyl)piperazin-1-yl)methyl)pyrrolo[2,1-f][1,2,4]triazin-2-yl)-4-(trifluoromethyl)pyridin-2-yl)carbamate]
IC50 [13]: 5.67 nM
IC50 [14]: 470 nM

— US9724352B2, “Pyrrolo[2,1-F[1,2,4]triazine compounds, preparation methods and applications thereof” (Shanghai Institute of Materia Medica, Chinese Academy of …, priority 2012, dated 2017)
